# Target: T1, LeMTS1 (Solanum lycopersicum, UniProt Q1XBU5)
# T1 sequence (Q1XBU5 44-609): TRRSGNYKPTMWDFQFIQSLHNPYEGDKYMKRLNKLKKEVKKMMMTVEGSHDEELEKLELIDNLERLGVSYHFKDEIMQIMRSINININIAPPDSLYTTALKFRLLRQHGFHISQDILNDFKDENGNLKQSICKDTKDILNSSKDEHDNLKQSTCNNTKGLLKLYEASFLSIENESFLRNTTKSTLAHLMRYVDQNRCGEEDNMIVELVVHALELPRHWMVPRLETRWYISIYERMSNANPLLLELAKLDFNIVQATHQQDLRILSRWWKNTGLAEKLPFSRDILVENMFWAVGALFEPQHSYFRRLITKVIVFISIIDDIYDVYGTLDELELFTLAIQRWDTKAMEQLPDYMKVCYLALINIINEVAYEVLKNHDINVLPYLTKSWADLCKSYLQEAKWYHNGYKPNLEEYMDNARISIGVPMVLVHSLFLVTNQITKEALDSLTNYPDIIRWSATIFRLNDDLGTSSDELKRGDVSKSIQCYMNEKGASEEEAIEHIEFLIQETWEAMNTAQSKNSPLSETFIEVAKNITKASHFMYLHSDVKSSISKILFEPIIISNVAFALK
# Assay: terpene synthase assay, SPME GC-TOF-MS of products
# Assay type: biochemical
# Conditions: product (E)-nerolidol; 10 uM substrate, 10 mM MgCl2, 2 mM MnCl2, HEPES pH 7.5, 30 C, 1 h
compound,measurement,value
CC(C)=CCC/C(C)=C/CC/C(C)=C/COP(=O)(O)OP(=O)(O)O [FPP],"terpene synthase assay, SPME GC-TOF-MS of products",LeMTS1 was also able to utilize the sesquiterpene precursor farnesyl diphosphate (FPP) as substrate

# Source: paper PMC1876254 (Plant Molecular Biology, 2007)
